{"source": "patent US20230078718A1", "about": "“UNSATURATED FATTY ACID-CONJUGATED CP2C-TARGETING PEPTIDE-BASED ANTICANCER AGENT” (Industry-University Cooperation Foundation Hanyang …, priority 2020, published 2023)", "key": {"[1]": {"tested_on": "Hep3B xenograft", "assay": "Tumor growth inhibition in Hep3B xenograft mouse model", "type": "in vivo", "description": "In order to confirm the anticancer efficacy of ACP52CG and ACP52CK in vivo, following groups of treatment were performed […]; a negative control (saline; mock), a positive control (sorafenib, 10 mg/kg and ACP52C, 2 mg/kg), and an experimental group (ACP52CK, 5 mg/kg and ACP52CG, 5 mg/kg)."}, "[2]": {"tested_on": "normal human mesenchymal stem cells (hMSCs)", "description": "(§1) As an example thereof, FIG. 10 illustrates cell numbers at 48 hours and 96 hours after treatment of each drug at different concentrations in a breast cancer cell line (MDA-MB-231), normal human mesenchymal stem cells (hMSCs, LT18), and a non-tumorigenic lung cell line (BEAS-2B), cell growth inhibition graphs to get GI50 values, and representative photographs of cells.\n(§2) First, to test the effect of DHA itself, a breast cancer cell line (MDA-MB-231), liver cancer cell lines (Hep3B and HepG2), a normal hMSC cell line ([…]), and a non-tumorigenic lung cell line (BEAS-2B) were treated with DHA over concentrations, and then cell growth was analyzed by MTT assay."}, "[3]": {"tested_on": "non-tumorigenic lung cell line (BEAS-2B)", "description": "as §1, §2"}, "[4]": {"tested_on": "breast cancer (MDA-MB-231) and liver cancer (HepG2) cell lines"}, "[5]": {"tested_on": "CP2c transcription factor complexes [CP2c homotetramer and the CBP (CP2c, CP2b, and PIAS1) heterohexamer]", "assay": "Interference with CP2c transcription factor complex formation and DNA binding", "type": "biochemical", "excerpt": "Since PEP #5-2 cannot enter cells by itself, in order to improve cell permeability of Pep #5-2, a cell-penetrating peptide (CPP), an internalizing RGD (iRGD) which is a peptide consisting of 9 amino acids (9aa) ‘Cys-Arg-Gly-Asp-Lys-Gly-Pro-Asp-Cys (CRGDKGPDC, SEQ ID NO: 3)’, was bound to the CP2c-targeting peptide and named it as ACP52C (FIG. 7)."}, "[6]": {"tested_on": "MCF7 cells", "conditions": "ACP52C-treated MCF7 cells"}, "[7]": {"tested_on": "MDA-MB-231 cells", "conditions": "western blotting of apoptosis-related proteins, electron microscopy, Annexin V/PI"}, "[8]": {"assay": "Live imaging of Cy5-labeled peptide after tail vein injection in Hep3B xenograft mouse", "conditions": "in vivo", "excerpt": "(§3) The following methods were used to confirm the stability and safety of the cancer cell-specific cell death-inducing ACP52C. […] It is presumed that ACP52C is subjected to renal secretion rather than degradation by proteases, since ACP52C (a peptide consisted of 15 amino acids) is short enough to be easily secreted from the kidneys."}, "[9]": {"tested_on": "MDA-MB-231 and HepG2 cell lines"}, "[10]": {"tested_on": "MCF10A cells", "conditions": "electron microscopy"}, "[11]": {"tested_on": "MCF10A, a non-tumorigenetic breast epithelial cell line", "conditions": "FACS"}, "[12]": {"assay": "Stability in serum (in vitro) by HPLC", "type": "in vitro ADME", "excerpt": "as §3"}, "[13]": {"tested_on": "human erythrocytes", "assay": "Hemolysis of erythrocytes", "type": "cell-based", "conditions": "pH 7.4, 8 hours", "excerpt": "as §3"}, "[14]": {"tested_on": "various cancer cell lines", "assay": "Cell growth inhibition in various cancer cell lines (MTT assay, GI50)", "type": "cell-based"}, "[15]": {"assay": "Half-life in blood (in vivo) by HPLC", "conditions": "read-out: time to degradation to half in blood (in vivo) (converted)", "excerpt": "as §3"}, "[16]": {"tested_on": "MDA-MB-231 cell line", "conditions": "MDA-MB-231, FACS"}, "[17]": {"tested_on": "breast cancer cell line (MDA-MB-231), liver cancer cell lines (Hep3B and HepG2)", "assay": "Cell growth by MTT assay after DHA treatment of cancer cell lines", "type": "cell-based", "method": "First, to test the effect of DHA itself, a breast cancer cell line (MDA-MB-231), liver cancer cell lines (Hep3B and HepG2), a normal hMSC cell line (LA211), and a non-tumorigenic lung cell line (BEAS-2B) were treated with DHA over concentrations, and then cell growth was analyzed by MTT assay."}, "[18]": {"conditions": "tail vein, 6 times at 3-day intervals, sorafenib 10 mg/kg, DHA-ACP52 1.65 mg/kg, DHA-ACP52C 2.79 mg/kg"}}, "note": "Bridge positions count the residues as written; N and C are the ends. Peptide text beside a SMILES is read from it. * marks the point of attachment. X1 = CC/C=C\\C/C=C\\C/C=C\\C/C=C\\C/C=C\\C/C=C\\CCC(=O)*", "data": [{"molecule": "CC/C=C\\C/C=C\\C/C=C\\C/C=C\\C/C=C\\C/C=C\\CCC(=O)NCC(=O)NCC(=O)N[C@@H](CC(N)=O)C(=O)N[C@@H](Cc1ccc(O)cc1)C(=O)N1CCC[C@H]1C(=O)N[C@@H](CCC(N)=O)C(=O)N[C@@H](CCCNC(=N)N)C(=O)N1CCC[C@H]1C(N)=O", "note": "[DHA-ACP52] (X1-GGNYPQRP-NH2)", "values": [{"measurement": "tumor size, shape, and weight in sacrificed mice", "setting": "[1]; [18]", "result": "did not exhibit any effect"}, {"measurement": "toxicity", "setting": "[2]", "result": "none of DHA-ACP52 and DHA-ACP52C showed toxicity"}, {"measurement": "toxicity", "setting": "[3]", "result": "none of DHA-ACP52 and DHA-ACP52C showed toxicity"}, {"measurement": "GI50", "setting": "[4]", "result": "5.7 to 6.95", "unit": "µM"}]}, {"molecule": "PEP #5: peptide binding transcription factor CP2c, identified by the phage display method (YPQR; peptide for targeting CP2c)", "values": [{"measurement": "interference with DNA binding of the CP2c transcription factor complexes by suppressing complex formation", "setting": "[5]", "result": "interferes with DNA binding of the CP2c transcription factor complexes"}]}, {"molecule": "CNC(=O)c1cc(Oc2ccc(NC(=O)Nc3ccc(Cl)c(C(F)(F)F)c3)cc2)ccn1", "note": "[sorafenib, reference compound]", "values": [{"measurement": "tumor size measured once every 3 days during the experiment", "setting": "[1]; [18]", "result": "inhibited cancer growth more effectively than the group treated with mock or DHA-ACP52"}, {"measurement": "tumor size, shape, and weight in sacrificed mice", "setting": "[1]; [18]", "result": "significant anticancer efficacy compared to the mock"}]}, {"molecule": "N=C(N)NCCC[C@@H]1NC(=O)[C@@H](NC(=O)[C@@H]2CCCN2C(=O)[C@H](CCCNC(=N)N)NC(=O)[C@H](CCC(N)=O)NC(=O)[C@@H]2CCCN2C(=O)[C@H](Cc2ccc(O)cc2)NC(=O)[C@@H](N)CC(N)=O)CSSC[C@@H](C(N)=O)NC(=O)[C@H](CC(=O)O)NC(=O)[C@@H]2CCCN2C(=O)CNC(=O)[C@H](CCCCN)NC(=O)[C@H](CC(=O)O)NC(=O)CNC1=O", "note": "[ACP52C] (H-NYPQRPCRGDKGPDC-NH2; disulfide 7-15; N-terminus assumed)", "values": [{"measurement": "expression of Cdc2 (CDK1) and Cyclin B1", "setting": "[6]", "result": "expression of Cdc2 (CDK1) and Cyclin B1 was decreased"}, {"measurement": "anticancer effect (summary)", "setting": "[1]; injected by 3-day intervals", "result": "exhibited a significant anticancer effect when injected by 3-day intervals"}, {"measurement": "anticancer effect (summary)", "setting": "[1]; injected by 5-day intervals", "result": "did not exhibit a significant anticancer effect when injected by 5-day intervals"}, {"measurement": "cell death induction via apoptosis", "setting": "[7]", "result": "induced cell death via apoptosis"}, {"measurement": "half-life", "setting": "[8]", "result": "~7.95", "unit": "h"}, {"measurement": "colony formation ability when CP2c is overexpressed", "setting": "[9]; CP2c overexpression", "result": "the colony formation ability is suppressed more efficiently"}, {"measurement": "colony formation ability", "setting": "[9]; MDA-MB-231 and HepG2", "result": "efficiently suppressed the colony formation ability"}, {"measurement": "characteristics of apoptosis (condensation of cell nuclei)", "setting": "[10]", "result": "not at all in MCF10A cells"}, {"measurement": "cell cycle progression", "setting": "[11]", "result": "exerted no effect on cell cycle progression"}, {"measurement": "time stable in serum (in vitro)", "setting": "[12]", "result": "up to 24 hours"}, {"measurement": "hemolysis", "setting": "[13]", "result": "Hemolysis was not appeared"}, {"measurement": "effective concentration for cancer cell-specific cell death", "setting": "[14]", "result": "≤ 10", "unit": "µM"}, {"measurement": "cancer cell-specific growth suppression and cell death", "setting": "[14]; various cancer cell lines", "result": "cancer cell-specific growth suppression and cell death efficacies"}, {"measurement": "half-life", "setting": "[15]", "result": 2, "unit": "h"}, {"measurement": "GI50", "setting": "[4]", "result": 2, "unit": "µM"}, {"measurement": "cell cycle changes", "setting": "[16]", "result": "induced cell cycle arrest, increasing cells at G2/M and subG1 phases"}]}, {"molecule": "CC/C=C\\C/C=C\\C/C=C\\C/C=C\\C/C=C\\C/C=C\\CCC(=O)O", "note": "[DHA, all-cis-docosa-4,7,10,13,16,19-hexa-enoic acid, reference compound]", "values": [{"measurement": "cytotoxicity", "setting": "[2]", "result": "showed no cytotoxicity on the normal cell line"}, {"measurement": "concentration showing cytotoxicity", "setting": "[3]; human", "result": "≥ 20", "unit": "µM"}, {"measurement": "anticancer effect at a concentration of 10 μM or less", "setting": "[17]; Hep3B and MDA-MB-231 cell lines", "result": "no anticancer effect was exhibited"}, {"measurement": "concentration showing cytotoxicity", "setting": "[17]; cancer cells, MTT", "result": "≥ 20", "unit": "µM"}]}, {"molecule": "NYPQRP(Asn-Try-Pro-Gln-Arg-Pro, SEQ ID NO: 2) (peptide for targeting CP2c) [PEP #5-2, CP2c-targeting peptide of 6 amino acids at the carboxyl terminus of PEP #5]", "values": [{"measurement": "interference with DNA binding of the CP2c transcription factor complexes by suppressing complex formation", "setting": "[5]", "result": "showed the same effect as PEP #5"}]}]}
